Reference: ChEMBL document CHEMBL1150621, “Two new triterpenoids from Azadirachta indica and their insecticidal activity” (2002)
Values after ≈ are worked out from the molar mass of the structure shown.

System: Anopheles stephensi
Test: Insecticidal activity against fourth instar larvae of Anopheles stephensi assessed as mortality after 24 hrs
Assay type: functional

Row | SMILES | LC50 [µg/mL]
1 | CC(=O)O[C@@H]1[C@H](O)[C@H]2C(C)(C)C(=O)C=C[C@]2(C)[C@H]2CC[C@@]3(C)CC(=O)C=C3[C@]12C | 43 (≈ 107 µM)
2 | CC(=O)O[C@@H]1[C@H](O)[C@H]2C(C)(C)C(=O)C=C[C@]2(C)[C@H]2CC[C@]3(C)C(=CC[C@H]3C3=COCC3)[C@]12C | 60 (≈ 132 µM)
